Laboratory results from article PMC5328913 (Redox Biology, 2017).

Biological target: T1, L-galactono-1,4-lactone dehydrogenase (GalLDH) from pepper fruits (Capsicum annuum, UniProt Q6QD76)
T1 sequence (Q6QD76 38-586): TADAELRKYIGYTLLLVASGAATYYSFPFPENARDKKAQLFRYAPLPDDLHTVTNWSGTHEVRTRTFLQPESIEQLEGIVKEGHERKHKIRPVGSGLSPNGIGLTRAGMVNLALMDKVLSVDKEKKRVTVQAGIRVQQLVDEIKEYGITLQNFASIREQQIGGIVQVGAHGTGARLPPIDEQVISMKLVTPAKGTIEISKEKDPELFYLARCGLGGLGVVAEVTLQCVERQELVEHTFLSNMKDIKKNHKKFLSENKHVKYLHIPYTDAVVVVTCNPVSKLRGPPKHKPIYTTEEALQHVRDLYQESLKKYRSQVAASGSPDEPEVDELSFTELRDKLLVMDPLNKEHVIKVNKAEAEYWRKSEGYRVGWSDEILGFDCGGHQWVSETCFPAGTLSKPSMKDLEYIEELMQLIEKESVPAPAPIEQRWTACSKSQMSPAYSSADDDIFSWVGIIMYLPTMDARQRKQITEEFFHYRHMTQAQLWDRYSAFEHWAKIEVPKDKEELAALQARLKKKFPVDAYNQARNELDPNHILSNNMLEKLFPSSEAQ
Assay: spectrophotometric cytochrome c reduction at […] nm
Assay type: biochemical
Details: read-out: % inhibition at 0.5 mM and 2 mM

Which inhibition at 500 µM does the source give for `N[C@@H](CCC(=O)N[C@@H](CS)C(=O)NCC(=O)O)C(=O)O` [GSH, reduced glutathione] here?
Its inhibition at 500 µM is 60%.
